In PubChem BioAssay AID1996:
In brackets after ≈: the same amount, converted by molar mass.

Details: buffer; pH 7.4; 200.0 µM

Row | Structure (SMILES) | solubility kinetic [µg/mL]
1 | CCN(CC)C(=S)SCC(=O)Nc1ncc2c(n1)CC(C)(C)CC2=O | 2.1 (≈ 5.52 µM)
2 | CCc1ccc(NC(=S)NCc2ccccc2)cc1 | 27.4 (≈ 101 µM)
3 | O=C(O)c1ccccc1C(=O)N1CCN(S(=O)(=O)c2cccc(C(F)(F)F)c2)CC1 | > 66.4
4 | COC(=O)[C@@H](NC(=O)/C=C/c1ccc(OC)cc1)C(C)C | > 43.7
5 | NC(N)=NC(N)=Nc1ccccc1 | > 26.6
6 | O=C(Nc1ccc(Cl)cc1)C1CCCC1 | 15.8 (≈ 70.6 µM)
7 | COc1c(F)c(F)cc2c(=O)c(C(=O)O)cn(C3CC3)c12 | > 44.3
8 | CCNC(=S)N1CCN(S(=O)(=O)/C=C/c2ccccc2)CC1 | 4.2 (≈ 12.4 µM)
9 | COc1ccc(NC(=O)c2ccc3c(c2)NC(=O)CO3)cc1OC | 10.2 (≈ 31.1 µM)
10 | CCN(C(=O)CSc1nc(C)c(C)c(C)n1)C1CCS(=O)(=O)C1 (centres undefined) | > 53.6
11 | CCC(C(=O)NC1CCCCCC1)c1ccccc1 (centres undefined) | 33.4 (≈ 129 µM)
12 | CCCCC(=O)Nc1ccccc1CC | > 30.8
13 | COc1ccccc1N1CCN(S(=O)(=O)c2ccc(Cl)cc2)CC1 | 4 (≈ 10.9 µM)
14 | CN(CCOc1ccc(F)cc1)Cc1ccccc1.O=C(O)C(=O)O | 34.6
15 | CCN1CCCC1CNC(=O)C(=O)Nc1ccccc1 (centres undefined) | > 41.3
16 | NC(=O)c1c(NC(=O)c2ccccc2)sc2c1CCCC2 | 0.8 (≈ 2.66 µM)
17 | COc1cc(CCC(=O)NCc2ccc(F)cc2)cc(OC)c1OC | > 52.1
18 | Cc1ccc(S(=O)(=O)NCCN2CCOCC2)c(C)c1.Cl | > 50.2
19 | CC(C)S(=O)(=O)C/C(N)=N/OS(=O)(=O)c1ccc(Cl)cc1 | 42.5 (≈ 120 µM)
20 | CN(Cc1ccccc1)C(=O)COc1ccc(C(C)(C)C)cc1 | < 0.7
21 | COc1ccc(-c2nc3c4ccccc4ccn3c2CN2CCCCC2)cc1 | 1.7 (≈ 4.58 µM)
22 | N#CC1(NC(=O)COc2ccccc2[N+](=O)[O-])CCCCC1 | > 45.5
23 | Cc1[nH]ccc(=O)c1OCC(=O)O | > 27.5
24 | CCc1nc2cc(Cl)c(Cl)cc2nc1CC | < 0.3
25 | CC(=O)N=C1SC2CS(=O)(=O)CC2N1Cc1ccc(C)cc1 (centres undefined) | 19.7 (≈ 58.2 µM)
26 | Cc1[nH]c2ccc(C(=O)N3CCC(C(N)=O)CC3)cc2c1C | > 44.9
27 | CCN(CCS(=O)(=O)c1ccc(Cl)cc1)C(=O)Nc1ccc(Cl)cc1 | 43.2 (≈ 108 µM)
28 | Cc1ccc(CN2CCCC(C(=O)c3ccc4c(c3)OCO4)C2)cc1C (centres undefined) | 25.4 (≈ 72.3 µM)
29 | CCOc1cc(C(=O)NC)cc(Br)c1OC | > 43.2

Other lines, results leading:

Row | solubility kinetic [µg/mL] | Structure (SMILES)
30 | > 43.6 | Cl.Nc1cnccc1Oc1cccc(C(F)(F)F)c1
31 | 48.1 (≈ 122 µM) | Cc1ccc(S(=O)(=O)NCc2ccccc2)cc1C(=O)NCc1ccccn1
32 | 13.6 (≈ 27.5 µM) | COc1ccc(/C=C/C(=O)N2CCN(S(=O)(=O)c3ccccc3Br)CC2)cc1OC
33 | > 46.5 | CCOc1ccc(C2C(C#N)=C(N)Oc3nc[nH]c(=O)c32)cc1 (centres undefined)
34 | > 48.8 | O=S(=O)(Nc1cccc2ccccc12)c1cccc2nonc12
35 | 37.8 (≈ 134 µM) | O=C(Cc1nc2ccccc2[nH]1)c1ccc([N+](=O)[O-])cc1
36 | 4.2 (≈ 14.9 µM) | O=c1c(Cl)c2oc3ccccc3nc-2c2ccccc12
37 | 2 (≈ 4.68 µM) | Cc1ccc(NC(=O)Cc2c(F)cccc2Cl)cc1S(=O)(=O)N1CCOCC1
38 | 30.5 (≈ 102 µM) | S=C(NCc1cccs1)Nc1cccc2ccccc12
39 | 0.8 (≈ 2.49 µM) | O=C(Cc1c(F)cccc1Cl)Nc1nc2ccccc2s1
40 | 45.4 (≈ 133 µM) | Cc1ccc(OCC(=O)NCCCNC(=O)c2ccccn2)cc1C
41 | 23.4 (≈ 94.2 µM) | CCOC(=O)c1sc(-c2ccccn2)nc1C
42 | 42.7 (≈ 145 µM) | CCOC(=O)C1=C(C)NC(=O)NC1c1ccc([N+](=O)[O-])o1 (centres undefined)
43 | > 47.2 | Cc1cccc(-n2c(SCC(N)=O)nnc2-c2ccco2)c1
44 | 1.4 (≈ 4.4 µM) | CSc1ccccc1NC(=O)c1cc(Cl)sc1Cl
45 | 14 (≈ 42.5 µM) | COc1ccccc1C(=O)NC(=O)CSc1ccc(C)c(C)c1
46 | > 43.4 | COCCCN1CN=C(Nc2nc3ccccc3o2)NC1
47 | 15.6 (≈ 55.8 µM) | Cc1cc2cc(CNC(=O)Nc3ccccc3)ccc2[nH]1
48 | > 36.8 | Cc1cnc(C(=O)OCC(=O)c2ccc[nH]2)cn1
49 | 1.5 (≈ 4.73 µM) | COc1ccc(-n2c(-c3ccc(Cl)cc3)c[nH]c2=S)cc1
50 | 6.9 (≈ 27 µM) | Cc1nc(CSc2ccc(Cl)cc2)cs1
51 | 46.6 (≈ 147 µM) | O=C(NC(=S)N1CCc2ccccc21)c1ccccc1Cl
52 | > 52.5 | Cc1cc(NC(=O)COC(=O)c2cnccn2)ccc1Br
53 | 6.1 (≈ 20.5 µM) | O=C(Nc1ccc(SC(F)F)cc1)c1ccccc1F
54 | 32.2 (≈ 95.7 µM) | CCC(=O)N(Cc1cc2ccccc2[nH]c1=O)c1ccccc1OC
55 | 14.9 (≈ 46.7 µM) | CC(C)(C)OC(=O)CN1c2cccc3cccc(c23)S1(=O)=O
56 | 17.7 (≈ 52.1 µM) | Cc1cc(=O)[nH]c(SCC(=O)Nc2ccc3c(c2)CCC3)c1C#N
57 | 46.7 (≈ 140 µM) | Cc1cccc(NC(=S)N(CCN(C)C)Cc2cccs2)c1
58 | 40.9 (≈ 133 µM) | Cc1cc(OC(=O)c2cccc(Cl)c2)c([N+](=O)[O-])c(=O)[nH]1
59 | 12.6 (≈ 59.1 µM) | Cc1cccc(OC(=O)c2cccnc2)c1
